Here are results for 45 compounds from the supplement of paper PMC9265050, “Inhibition of RNA Binding in SND1 Increases the Levels of miR-1-3p and Sensitizes Cancer Cells to Navitoclax” (Cancers, 2022).

The test system of this assay is SW480. Description: drug sensitivity score (DSS, integrated dose-response area); higher = more sensitive (stronger viability reduction); extreme values may be limits of the assay. An outline of the steps: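 SW480 cells stably carrying doxycycline-inducible control or SND1-targeting shRNA were treated with 0.1 µg/mL doxycycline for 7 days. Cells were then seeded at 1000 per well into 384-well plates containing 525 commercially available small-molecule inhibitors at five concentrations, and viability was measured with CellTiter-Glo after 72 h. The drug sensitivity score integrates the area under a fitted non-linear dose–response model.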

Where [1] appears, read: shRNA: SND1 shRNA1 (SND1 silenced).
Where [2] appears, read: shRNA: SND1 shRNA2 (SND1 silenced).
[3] abbreviates: shRNA: control shRNA (non-targeting).

For `CC(=O)NCC(=O)N1[C@@H]2CC[C@H]1c1ccc(Nc3ncc(C(F)(F)F)c(NC4CCC4)n3)cc12`, the drug sensitivity score reads like this: under setting [1], 17.4 DSS; under setting [2], 14.2 DSS; under setting [3], 13.2 DSS.

For `CC(C)CC(=O)Nc1n[nH]c2c1CN(C(=O)C1CCN(C)CC1)C2(C)C`, the drug sensitivity score amounted to 6.1 DSS under setting [1], 5.8 DSS under setting [2] and 10.7 DSS under setting [3].

For `CCNC(=O)C[C@@H]1N=C(c2ccc(Cl)cc2)c2cc(OC)ccc2-n2c(C)nnc21`, the drug sensitivity score came to 2.7 DSS under setting [1], 0 DSS under setting [2] and 0.6 DSS under setting [3].

For `CCOc1ccn(-c2ccc(F)cc2)c(=O)c1C(=O)Nc1ccc(Oc2ccnc(N)c2Cl)c(F)c1`, the drug sensitivity score came out at 1.9 DSS under setting [1], 8.3 DSS under setting [2] and 6.5 DSS under setting [3].

In the case of `CCc1cc(Nc2nccc(-c3c(-c4ccc(OC)c(C(=O)Nc5c(F)cccc5F)c4)nc4ccccn34)n2)c(OC)cc1N1CCC(N2CCN(S(C)(=O)=O)CC2)CC1`, the drug sensitivity score under setting [1] is 0.2 DSS, the drug sensitivity score under setting [2] stood at 2.1 DSS and the drug sensitivity score under setting [3] was 0 DSS.

For `CCc1cncnc1N1CCN(Cc2nc3ccc(C(F)(F)F)cc3[nH]2)CC1`, the drug sensitivity score reads like this: under setting [1], 0.3 DSS; under setting [2], 2.9 DSS; under setting [3], 2 DSS.

Compound `CCn1c(-c2nonc2N)nc2cnc(Oc3cccc(NC(=O)c4ccc(OCCN5CCOCC5)cc4)c3)cc21` displayed a drug sensitivity score under setting [1] of 4.8 DSS, a drug sensitivity score under setting [2] of 5.2 DSS and a drug sensitivity score under setting [3] of 5.5 DSS.

As to `CCn1c(C(=O)N(C2CC2)C2CC2)cc2c3c(ncn3C)c(Nc3cc(C)n(C)n3)nc21`, the drug sensitivity score is, setting by setting: under setting [1], 0 DSS; under setting [2], 0 DSS; under setting [3], 0 DSS.

In the case of `CCn1cc(-c2ccnc3[nH]c(-c4cccc(CN(C)C)c4)cc23)c(-c2ccc(NC(=O)N(C)C)cc2)n1`, the drug sensitivity score is, setting by setting: under setting [1], 7.8 DSS; under setting [2], 9.5 DSS; under setting [3], 10.2 DSS.

For `CN(c1ccccc1CNc1nc(Nc2ccc3c(c2)CC(=O)N3)ncc1C(F)(F)F)S(C)(=O)=O`, the drug sensitivity score turned out to be 9.7 DSS under setting [1], 8.3 DSS under setting [2] and 9.2 DSS under setting [3].

As for `CN(c1ncccc1CNc1nc(Nc2ccc3c(c2)CC(=O)N3)ncc1C(F)(F)F)S(C)(=O)=O`, the drug sensitivity score by setting is: under setting [1], 4.9 DSS; under setting [2], 3.5 DSS; under setting [3], 3.4 DSS.

For the compound `CN1CCC(COc2cnc(-c3cccc(Cn4nc(-c5cccc(C#N)c5)ccc4=O)c3)nc2)CC1`, the drug sensitivity score stood at 0 DSS under setting [1], 0 DSS under setting [2] and 0 DSS under setting [3].

As to `CNC(=O)c1ccc(C)c(-n2c(C)cc(OCc3ccc(F)cc3F)c(Br)c2=O)c1`, the drug sensitivity score is, setting by setting: under setting [1], 0 DSS; under setting [2], 1 DSS; under setting [3], 0 DSS.

Turning to `CNc1nc(-c2ccc3c(N)n[nH]c3c2)cc(N2C[C@@H](C(=O)NC3CCCCC3)CC[C@H]2C)n1`, the drug sensitivity score is, setting by setting: under setting [1], 4.7 DSS; under setting [2], 4.2 DSS; under setting [3], 3.8 DSS.

`CNc1ncc2cc(-c3cc(NC(=O)NCCC(C)(C)C)c(F)cc3C)c(C)nc2n1`: the drug sensitivity score is 13.4 DSS under setting [1], 6.6 DSS under setting [2] and 9.7 DSS under setting [3].

For `COCC(=O)NC/C=C/c1ccc2ncnc(Nc3ccc(Oc4ccc(C)nc4)c(C)c3)c2c1`, the drug sensitivity score by setting is: under setting [1], 3.4 DSS; under setting [3], 3.2 DSS.

Take `COc1cc2ncnc(Oc3cccc(NC(=O)Nc4cc(C(C)(C)C(F)(F)F)on4)c3)c2cc1OC`: the drug sensitivity score under setting [1] turned out to be 4.5 DSS, the drug sensitivity score under setting [2] came to 0 DSS and the drug sensitivity score under setting [3] is 4.2 DSS.

Take `COc1ccc(-c2cc3c(C)nc(N)nc3n([C@H]3CC[C@H](OCCO)CC3)c2=O)cn1`: the drug sensitivity score by setting is: under setting [1], 17.3 DSS; under setting [2], 13.9 DSS; under setting [3], 9.3 DSS.

On to `COc1ccc(Cn2ccc3ccc(C(=O)NO)cc32)cc1`, for which the drug sensitivity score is, setting by setting: under setting [1], 3.3 DSS; under setting [2], 5.3 DSS; under setting [3], 1.8 DSS.

`CS(=O)(=O)N1CCc2c(-c3cnc(N)nc3)nc(N3CCOCC3)nc21`: the drug sensitivity score reads like this: under setting [1], 7 DSS; under setting [2], 6.4 DSS; under setting [3], 4.2 DSS.

In the case of `C[C@@H](Oc1cc(-n2cnc3ccc(CN4CCN(C)CC4)cc32)sc1C(N)=O)c1ccccc1C(F)(F)F`, the drug sensitivity score stood at 25.1 DSS under setting [1] and 23.6 DSS under setting [3].

For `C[C@@H](Oc1ccc2[nH]nc(/C=C/c3cnn(CCO)c3)c2c1)c1c(Cl)cncc1Cl`, the drug sensitivity score is 8.9 DSS under setting [1], 3.6 DSS under setting [2] and 4.2 DSS under setting [3].

Take `C[C@@]1(C(=O)Nc2ccc(F)nc2)CCCN1c1nc(Nc2cc(C3CC3)n[nH]2)c2cccn2n1`: the drug sensitivity score by setting is: under setting [1], 8.1 DSS; under setting [2], 4.6 DSS; under setting [3], 2.4 DSS.

Regarding `Cc1c(Cn2c(C)nc3c(C(=O)O)cc(N4CCOCC4)cc32)cccc1C(F)(F)F`, the drug sensitivity score reads like this: under setting [1], 2 DSS; under setting [2], 3.3 DSS; under setting [3], 0.8 DSS.

As to `Cc1c(NC(=O)OC[C@@H]2COCCN2)cn2ncnc(Nc3ccc4c(cnn4Cc4cccc(F)c4)c3)c12`, the drug sensitivity score runs as follows: under setting [1], 2 DSS; under setting [2], 3.1 DSS; under setting [3], 4 DSS.

Turning to `Cc1cccc(CC(=O)N2CCc3c2ccc(-c2cn(C)c4ncnc(N)c24)c3F)n1`, the drug sensitivity score was found to be 0 DSS under setting [1], 3.3 DSS under setting [2] and 0 DSS under setting [3].

The compound `Cc1nc(Nc2n[nH]c3c2CN(C(=O)N[C@H](CN(C)C)c2ccccc2)C3(C)C)c2sccc2n1` returned a drug sensitivity score under setting [1] of 14.9 DSS, a drug sensitivity score under setting [2] of 13.7 DSS and a drug sensitivity score under setting [3] of 16.5 DSS.

`Cc1nn(C)c(COc2ccc(N3CCN(S(=O)(=O)N(C)C)CC3)cc2)c1-c1cccc2c(CCCOc3cccc4ccccc34)c(C(=O)O)n(CCN3CCOCC3)c12` registered a drug sensitivity score under setting [1] of 4.9 DSS, a drug sensitivity score under setting [2] of 4.4 DSS and a drug sensitivity score under setting [3] of 5.7 DSS.

Consider `Cn1cc(-c2ccc3nnc(C(F)(F)c4ccc5ncccc5c4)n3n2)cn1`, for which the drug sensitivity score amounted to 0 DSS under setting [1], 0 DSS under setting [2] and 1.3 DSS under setting [3].

In the case of `Cn1cc(C2=Nc3cc(NC(=O)C(N)C4CCCCC4)cc4c3C2=CNNC4=O)cn1` (configuration not stated), the drug sensitivity score runs as follows: under setting [1], 8.3 DSS; under setting [2], 8.3 DSS; under setting [3], 10.7 DSS.

`NCC(=O)Nc1ccc(-n2nc(C(F)(F)F)cc2-c2ccc3c(ccc4ccccc43)c2)cc1` returned a drug sensitivity score under setting [1] of 10 DSS, a drug sensitivity score under setting [2] of 5.3 DSS and a drug sensitivity score under setting [3] of 7.5 DSS.

Compound `NC[C@@](O)(c1ccc(Cl)cc1)c1ccc(-c2cn[nH]c2)cc1` registered a drug sensitivity score under setting [1] of 8 DSS, a drug sensitivity score under setting [2] of 4.7 DSS and a drug sensitivity score under setting [3] of 10.2 DSS.

As to `Nc1nccc(-c2c(-c3ccc(F)cc3)ncn2C2CCCCC2)n1`, the drug sensitivity score reads like this: under setting [1], 0.8 DSS; under setting [2], 0.4 DSS; under setting [3], 0.8 DSS.

On to `Nc1ncnc2c1c(COc1cccc(Cl)c1)nn2C1CCOCC1`, for which the drug sensitivity score was 0 DSS under setting [1], 0.1 DSS under setting [2] and 0 DSS under setting [3].

Regarding `O=C(NC[C@H](O)CN1CCc2ccccc2C1)c1cc(NC2COC2)ncn1`, the drug sensitivity score by setting is: under setting [1], 0 DSS; under setting [2], 0 DSS; under setting [3], 0.2 DSS.

As for `O=C(NOCC1CC1)c1ccc(F)c(F)c1Nc1ccc(I)cc1Cl`, the drug sensitivity score is, setting by setting: under setting [1], 16.4 DSS; under setting [2], 7.4 DSS; under setting [3], 10.5 DSS.

Turning to `O=C(NOC[C@H](O)CO)c1ccc(F)c(F)c1Nc1ccc(I)cc1F`, the drug sensitivity score is, setting by setting: under setting [1], 17.9 DSS; under setting [2], 8.2 DSS; under setting [3], 9.5 DSS.

Regarding `O=C(Nc1ccc2[nH]nc(-c3ccncc3)c2c1)[C@@H]1CCN(CC(=O)N2CCN(c3ccc(-c4ncccn4)cc3)CC2)C1`, the drug sensitivity score came out at 14.2 DSS under setting [1], 8.8 DSS under setting [2] and 7.9 DSS under setting [3].

In the case of `O=C(O)c1ccc(-c2c[nH]c3ncc(-c4ccccc4)cc23)cc1C1CCCC1`, the drug sensitivity score stood at 1.9 DSS under setting [1], 3.3 DSS under setting [2] and 3.4 DSS under setting [3].

For `O=C(O)c1ccc(CN2CCC(CN[C@@H]3C[C@H]3c3ccccc3)CC2)cc1`, the drug sensitivity score by setting is: under setting [1], 0 DSS; under setting [2], 8 DSS; under setting [3], 1.2 DSS.

As to `O=C1NC(=O)/C(=C/c2ccc3nccc(-c4ccncc4)c3c2)S1`, the drug sensitivity score under setting [1] was 7.6 DSS and the drug sensitivity score under setting [3] amounted to 5.9 DSS.

`O=c1[nH]c(C2CCCN2)nc2c1oc1ccc(Cl)cc12` (configuration not stated): the drug sensitivity score was found to be 1.5 DSS under setting [1], 0 DSS under setting [2] and 8.1 DSS under setting [3].

The compound `O=c1cc(N2CCOCC2)oc2c(-c3ccccc3)cccc12` yielded a drug sensitivity score under setting [1] of 8.9 DSS, a drug sensitivity score under setting [2] of 9.9 DSS and a drug sensitivity score under setting [3] of 8.3 DSS.

As for `OCCn1cc(-c2cnc3nnn(Cc4ccc5ncccc5c4)c3n2)cn1`, the drug sensitivity score was found to be 0 DSS under setting [1], 0 DSS under setting [2] and 0 DSS under setting [3].

`Oc1c2ccccc2c2c3c(cccc13)N=N2`: the drug sensitivity score was 1.8 DSS under setting [1], 3.4 DSS under setting [2] and 0.6 DSS under setting [3].
